Assay results: patent publication US12686668B2, “Leukotriene synthesis inhibitors” (Naegis Pharmaceuticals Inc., priority 2019, dated 2026)
Like-named read-outs stand apart in the source and are kept apart here.

Experiments:
[1] = test system: LTB4 production in MC/9 cells; test: MC/9 HPLC assay, inhibition of LTB4 production; assay type: cell-based; details: Mus musculus
How it was run: (§1)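 MC/9 cells (3×10^6 in HBSS) pre-incubated 30 min with compound, then stimulated 20 min at room temperature with 1 μM A23187. After methanol quench and C18 solid-phase extraction, LTB4 and LTC4 quantified by HPLC against reference standards; inhibition relative to control samples.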

[2] = test system: LTC4 production in MC/9 cells; test: MC/9 HPLC assay, inhibition of LTC4 production; assay type: cell-based; details: Mus musculus; for inhibition at 3 µM: MC9, 3 μM, A23187 stimulated
How it was run: as §1

AA-induced ear edema = test: Arachidonic acid (AA) induced mouse ear edema model; assay type: in vivo, CD-1 mice; details: 4 hrs and 1 hr before AA 2 mg/ear, mice; for % Inhibition AA-Induced ear edema (0.3 mg/ear): topical 0.3 mg/ear; for % Inhibition AA-Induced ear edema (1 mg/ear): topical 1 mg/ear
Description: One group serves as a control and receives 20 μL of vehicle applied to the pinna of each ear (10 μL to the inside and 10 μL to the outside of the pinna). One or more additional groups serve as test groups. The test compound was applied to the pinna of one ear of the mouse in a 20 μL volume (10 μL to the inside and 10 μL to the outside of the pinna). Test compound or control vehicle (acetone/1% DMSO) was applied topically to the right ear 4 and 1 hour before the application of 2 mg/ear AA as a stimulus to both the inner and outer surfaces of CD-1 mice. The left ears received vehicle (acetone/1% DMSO) alone. The animal was lightly anesthetized again using isofluorane to enable application of the stimulus. For the control group, arachidonic acid (2 mg/ear) was applied as the stimulus to the pinna of one ear only, in a total volume of 20 μL of acetone (10 μL applied to the inside and 10 μL to the outside of the pinna). The other ear received 20 μL of acetone. This served to determine the increase in ear weight due to arachidonic acid in the absence of test compounds. For the test groups, arachidonic acid (2 mg/ear) was applied as the stimulus to the pinna of each ear, in a total volume of 20 μL of acetone (10 μL applied to the inside and 10 μL to the outside of the pinna). The animal was allowed to recover after application of the stimulus in each case. After 60 minutes the animal was euthanized and a standard biopsy sample was taken from each ear using a 6 mm skin biopsy punch (Acuderm). Ear edema was determined by the increase in weight of the tissue due to accumulation of fluid as a result of plasma extravasation. The ears were weighed separately using a balance suitable to record 0.1 mg. For the control group, the difference in ear weights was determined by subtracting the weight of the unstimulated ear from the stimulated ear, and this was a measure of the increase in ear weight due to edema. The percentage increase in ear weight was determined by dividing the increase in stimulated ear weight by the unstimulated ear weight and multiplying by 100. For the test groups, the difference in ear weights was determined by subtracting the weight of the untreated ear from the weight of the ear treated with test compound. The percent inhibition of the increase in ear weight for ears treated with the test compound was estimated by first subtracting the mean ear weight of the untreated controls from each tissue to determine the increase in tissue weight due to application of the arachidonic acid. The percent inhibition=1−(test drug stimulated ear (mg)/control stimulated ear (mg))×100. In Table 5, the data from inhibition of AA-induced ear edema in mice by topical application of compounds is provided. Compounds (0.3 or 1 mg/ear) were applied topically to the ear 4 hrs and 1 hr prior to application of arachidonic acid (AA; 2 mg/ear).

[3] = test system: LTB4 production in porcine or human whole blood; test: Whole blood HPLC assay, inhibition of LTB4 production; assay type: cell-based; details: 5 point curve, porcine or human whole blood (not specified)
Description: Porcine or human whole blood (1 mL) was pre-incubated with a series of concentrations of compound solubilized in DMSO for 30 minutes. Production of leukotrienes were stimulated with the addition of 20 μM calcium ionophore (A23187), diluted from a 4 mM DMSO stock in HBSS, and incubated at room temperature for 20 minutes. In porcine blood 20 μM arachidonic acid was added in addition to the calcium ionophore. The blood was centrifuged at 2,000 rpm for 15 minutes, and the plasma fraction removed for further processing. Plasma samples were diluted with 500 μL acidified water (HCl pH 3.0) and loaded onto C18 SEP-PAK columns (Canadian Lifesciences IS12000) for solid phase extraction. The leukotrienes were analyzed by HPLC using an ACE C18 column (4.5 mm×150 mm, 5 m) eluted with acetonitrile/methanol/water mixture with H3PO4, pH 3.5 (37:26:37) with a flow rate of 1.8 mL/min. The amount of LTB4 (Cayman Chemical, 20110) was calculated based on reference standards and the level of inhibition of LTB4 production induced by the test compounds was calculated relative to control samples. The results provided in Table 3 are IC50 values calculated based on a 5 point curve, where Compound No. refers to the compounds identified in Table 1.

[4] = molecular target: T1, recombinant human leukotriene A4 hydrolase enzyme (Homo sapiens, UniProt P09960); test: Amino-peptidase assay, alanine-4-nitroanalide; assay type: biochemical; details: negative values = augmented peptidase activity, read-out: % Inhibition aminopeptidase-Alanine-4-nitroanalide activity of LTA4H (3 μM)
T1 construct: purchased Cayman Chemical 10007817
T1 sequence (P09960 1-611): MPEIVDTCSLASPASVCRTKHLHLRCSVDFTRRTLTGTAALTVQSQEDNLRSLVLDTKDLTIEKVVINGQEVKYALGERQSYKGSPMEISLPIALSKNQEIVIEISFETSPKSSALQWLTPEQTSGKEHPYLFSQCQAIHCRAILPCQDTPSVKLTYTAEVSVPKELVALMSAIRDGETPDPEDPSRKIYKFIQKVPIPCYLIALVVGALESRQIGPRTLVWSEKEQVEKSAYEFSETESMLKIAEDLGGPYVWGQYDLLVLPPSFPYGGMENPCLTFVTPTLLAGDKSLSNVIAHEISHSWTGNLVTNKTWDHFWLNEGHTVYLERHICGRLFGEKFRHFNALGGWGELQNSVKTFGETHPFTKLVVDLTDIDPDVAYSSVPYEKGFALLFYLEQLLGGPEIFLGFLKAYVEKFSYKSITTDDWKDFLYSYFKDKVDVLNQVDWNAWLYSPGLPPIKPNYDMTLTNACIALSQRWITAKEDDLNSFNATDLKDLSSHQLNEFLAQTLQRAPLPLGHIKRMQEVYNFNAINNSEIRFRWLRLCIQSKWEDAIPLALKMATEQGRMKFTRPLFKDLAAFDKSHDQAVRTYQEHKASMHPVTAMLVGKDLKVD
How it was run: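 Compounds pre-incubated in the dark with recombinant human LTA4H (0.5 μg) in 50 mM Tris-HCl, 100 mM KCl; reaction started with alanine-4-nitroanilide (6 mM solution). Aminopeptidase rate followed as A405 from 4-nitroaniline, referenced to a standard; inhibition calculated versus controls, with negative values indicating augmented activity.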

[5] = molecular target: T1, recombinant human leukotriene A4 hydrolase enzyme; test: Amino-peptidase assay, PGP; assay type: biochemical; details: concentration not given
Description: A series of compound concentrations were pre-incubated with 50 ng of recombinant human leukotriene A4 hydrolase enzyme (Cayman Chemical, 10007817) in 50 L assay buffer (50 mM Tris-HCl, 100 mM KCl). The reaction was stimulated by adding 50 L 1 mM proline-glycine-proline (Bachem, H-7284) and incubated for 30 minutes at 37° C. The reaction was stopped with the addition of 150 μL of glacial acetic acid. The amount of free proline released from the peptide was detected through a reaction with ninhydrin. 150 μL of 25 mg/mL ninhydrin (BDH, B10132) in 60:40 acetic acid/water was added to each sample, and boiled for 30 minutes at 100° C. and once samples had cooled to room temperature, 350 μL of toluene was added to extract the ninhydrin reaction product. The amount of free proline was determined by comparing the absorbance at 520 nm to the L-proline (Sigma Aldrich, 81709) reference standard. Inhibition of free proline production was calculated based on control samples.

[6] = MC9, 1 μM, read-out: % inhibition LTB4 (1 μM)
[7] = MC9, Table 2 column 4, no concentration in head (1 μM according to b732), read-out: % Inhibition LTB4
[8] = MC9, 1 μM, read-out: % inhibition LTC4 (1 μM)
[9] = MC9, Table 2 column 3, no concentration in head (1 μM according to b732), read-out: % Inhibition LTC4

Compound | IC50 [3] [µM] | inhibition at 3 µM [4] [%] | % Inhibition aminopeptidase-PGP activity of LTA4H [5] | inhibition at 1 µM [1, 6] [%] | inhibition at 1 µM [1, 7] [%] | inhibition at 1 µM [2, 8] [%] | inhibition at 3 µM [2] [%] | inhibition at 1 µM [2, 9] [%] | % Inhibition AA-Induced ear edema (0.3 mg/ear) (AA-induced ear edema) | % Inhibition AA-Induced ear edema (1 mg/ear) (AA-induced ear edema)
CCC(O)(CCc1ccc(Oc2nc3ccccc3s2)cc1)C(F)(F)F (stereo not shown) [Compound 150, 1-[4-(1,3-benzothiazol-2-yloxy)phenyl]-3-(trifluoromethyl)pentan-3-ol] | 1 to 10 | 25 to 50 | <25% | 50 to 70 | 50 to 70 | 10 to 30 | 70 to 90 | 10 to 30 |  | 
CCC(CCc1ccc(Oc2nc3ccccc3s2)cc1)N1CCCC1 (stereo not shown) [Compound 158, 2-{4-[3-(pyrrolidin-1-yl)pentyl]phenoxy}-1,3-benzothiazole] | 0.1 to 1 | 50 to 75 |  |  | > 90 |  | < 10 | 10 to 30 |  | 10-30%
COc1cc(CCC(C)(O)C(F)(F)F)ccc1OCc1ccc2ccccc2n1 (stereo not shown) [Compound 184, 1,1,1-trifluoro-4-[3-methoxy-4-(quinolin-2-ylmethoxy)phenyl]-2-methylbutan-2-ol] | 0.1 to 1 | < 25 | 25-50% |  |  |  |  |  |  | 

Further lines, with some results ahead:

IC50 [3] [µM] | inhibition at 3 µM [4] [%] | % Inhibition aminopeptidase-PGP activity of LTA4H [5] | Compound | inhibition at 1 µM [1, 6] [%] | inhibition at 1 µM [1, 7] [%] | inhibition at 1 µM [2, 8] [%] | inhibition at 3 µM [2] [%] | inhibition at 1 µM [2, 9] [%] | % Inhibition AA-Induced ear edema (0.3 mg/ear) (AA-induced ear edema) | % Inhibition AA-Induced ear edema (1 mg/ear) (AA-induced ear edema)
1 to 10 |  |  | CCC(O)(CCc1ccc(Oc2nc3ccccc3s2)c(OC)c1)C(F)(F)F (stereo not shown) [Compound 103, 1-[4-(1,3-benzothiazol-2-yloxy)-3-methoxyphenyl]-3-(trifluoromethyl)pentan-3-ol] | 50 to 70 | 50 to 70 | 50 to 70 | > 90 | 50 to 70 | 30-50% | 70-90%
1 to 10 |  |  | CCC(O)(CCc1ccc(Oc2nc3ccc(F)cc3s2)c(OC)c1)C(F)(F)F (stereo not shown) [Compound 108, 1-{4-[(6-fluoro-1,3-benzothiazol-2-yl)oxy]-3-methoxyphenyl}-3-(trifluoromethyl)pentan-3-ol] |  | > 90 |  | 50 to 70 | 70 to 90 | <10% | 30-50%
1 to 10 |  |  | COc1cc(CCC(C)(O)C(F)(F)F)ccc1Oc1nc2c(SC)cccc2s1 (stereo not shown) [Compound 119, 1,1,1-trifluoro-4-(3-methoxy-4-{[4-(methylsulfanyl)-1,3-benzothiazol-2-yl]oxy}phenyl)-2-methylbutan-2-ol] |  | > 90 |  | > 90 | > 90 | 30-50% | 50-70%
